This is an account of results in ChEMBL document CHEMBL4316626, “N-Acyl pyrazoles: Effective and tunable inhibitors of serine hydrolases” (Bioorg Med Chem, 2019).

Assay [1] deals with T1, Fatty-acid amide hydrolase 1 (Mus musculus, UniProt O08914).
T1 sequence (O08914 whole entry): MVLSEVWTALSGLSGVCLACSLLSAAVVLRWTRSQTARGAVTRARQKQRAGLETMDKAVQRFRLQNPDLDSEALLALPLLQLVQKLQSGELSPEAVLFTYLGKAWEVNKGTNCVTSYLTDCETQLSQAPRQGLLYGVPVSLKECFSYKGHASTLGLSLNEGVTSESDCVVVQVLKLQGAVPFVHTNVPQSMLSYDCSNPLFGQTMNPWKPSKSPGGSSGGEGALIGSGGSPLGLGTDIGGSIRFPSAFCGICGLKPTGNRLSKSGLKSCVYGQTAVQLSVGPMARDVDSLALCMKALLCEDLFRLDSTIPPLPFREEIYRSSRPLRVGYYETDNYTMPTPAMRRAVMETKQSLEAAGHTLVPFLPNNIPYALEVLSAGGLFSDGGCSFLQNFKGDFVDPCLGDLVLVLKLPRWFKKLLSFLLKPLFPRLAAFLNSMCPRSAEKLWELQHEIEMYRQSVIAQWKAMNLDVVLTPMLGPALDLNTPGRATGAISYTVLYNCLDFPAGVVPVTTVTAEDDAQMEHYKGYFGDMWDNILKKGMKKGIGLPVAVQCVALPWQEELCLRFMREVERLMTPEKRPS
As to the kind of experiment: Inhibition of FP-rhodamine probe binding to FAAH in mouse brain membrane proteome preincubated for 1 hr followed by FP-rhodamine addition and measured after 30 mins by SDS-PAGE based fluorescence assay. Type of assay: cell membranes.

For assay [2], the species on record is Rattus norvegicus. As to the kind of experiment: Inhibition of recombinant rat FAAH deltaTM mutant expressed in Escherichia coli at 50 nM using 14C-labeled oleamide as substrate preincubated for 3 hrs by TLC method relative to control.
Assay [3] is filed under the species Rattus norvegicus. As to the kind of experiment: Irreversible inhibition of recombinant rat FAAH deltaTM mutant expressed in Escherichia coli at 50 nM using 14C-labeled oleamide as substrate preincubated for 3 hrs followed by dialysis for 18 hrs.
The target in assay [4] is T2, Neutral cholesterol ester hydrolase 1 (Mus musculus, UniProt Q8BLF1).
T2 sequence (Q8BLF1 whole entry): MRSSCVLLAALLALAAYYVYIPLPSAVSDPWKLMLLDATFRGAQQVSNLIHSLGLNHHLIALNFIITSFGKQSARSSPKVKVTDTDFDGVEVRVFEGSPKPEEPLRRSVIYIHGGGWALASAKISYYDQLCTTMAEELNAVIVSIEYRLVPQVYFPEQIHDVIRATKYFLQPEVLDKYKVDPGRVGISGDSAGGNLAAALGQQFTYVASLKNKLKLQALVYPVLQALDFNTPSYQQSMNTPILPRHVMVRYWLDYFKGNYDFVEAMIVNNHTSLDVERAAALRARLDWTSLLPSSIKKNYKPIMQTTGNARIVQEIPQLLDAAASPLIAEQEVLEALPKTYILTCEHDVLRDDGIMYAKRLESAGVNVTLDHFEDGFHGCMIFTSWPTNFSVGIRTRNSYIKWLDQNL
As to the kind of experiment: Inhibition of FP-rhodamine probe binding to KIAA1363 in mouse brain membrane proteome preincubated for 1 hr followed by FP-rhodamine addition and measured after 30 mins by SDS-PAGE based fluorescence assay. It counts as cell membranes.

The nature of assay [5]: Inhibition of recombinant rat FAAH deltaTM mutant expressed in Escherichia coli using 14C-labeled oleamide as substrate preincubated for 3 hrs followed by substrate addition and measured by TLC based Dixon-plot analysis. The note with it: read-out: Ki(app).
In assay [6] the target is T3, Monoglyceride lipase (Mus musculus, UniProt O35678).
T3 sequence (O35678 whole entry): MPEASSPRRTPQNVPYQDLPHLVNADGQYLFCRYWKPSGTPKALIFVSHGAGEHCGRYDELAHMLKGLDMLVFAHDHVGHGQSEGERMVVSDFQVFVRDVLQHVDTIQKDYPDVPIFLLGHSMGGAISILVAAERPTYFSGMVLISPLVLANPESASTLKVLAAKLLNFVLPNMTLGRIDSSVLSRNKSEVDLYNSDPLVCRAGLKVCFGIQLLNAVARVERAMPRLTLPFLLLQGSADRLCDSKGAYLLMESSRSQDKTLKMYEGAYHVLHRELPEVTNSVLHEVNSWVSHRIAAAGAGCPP
As to the kind of experiment: Inhibition of FP-rhodamine probe binding to MGLL in mouse brain membrane proteome preincubated for 1 hr followed by FP-rhodamine addition and measured after 30 mins by SDS-PAGE based fluorescence assay. It counts as cell membranes.

Assay [7] addresses T4, Monoacylglycerol lipase ABHD6 (Mus musculus, UniProt Q8R2Y0).
T4 sequence (Q8R2Y0 whole entry): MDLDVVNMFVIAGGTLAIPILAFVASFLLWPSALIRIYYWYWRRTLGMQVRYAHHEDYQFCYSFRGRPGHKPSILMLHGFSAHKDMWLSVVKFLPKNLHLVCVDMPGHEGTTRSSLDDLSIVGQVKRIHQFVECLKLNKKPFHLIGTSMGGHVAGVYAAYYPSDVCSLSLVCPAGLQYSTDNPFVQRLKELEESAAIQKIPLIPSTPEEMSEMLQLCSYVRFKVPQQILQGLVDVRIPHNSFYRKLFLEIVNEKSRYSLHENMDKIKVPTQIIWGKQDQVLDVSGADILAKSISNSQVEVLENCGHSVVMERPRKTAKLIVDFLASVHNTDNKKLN
As to the kind of experiment: Inhibition of FP-rhodamine probe binding to ABHD6 in mouse brain membrane proteome preincubated for 1 hr followed by FP-rhodamine addition and measured after 30 mins by SDS-PAGE based fluorescence assay. It counts as cell membranes.

For assay [8], the species on record is Rattus norvegicus. As to the kind of experiment: Time-dependent irreversible inhibition of recombinant rat FAAH deltaTM mutant expressed in Escherichia coli using 14C-labeled oleamide as substrate by TLC method.
The species named for assay [9] is Rattus norvegicus. As to the kind of experiment: Inhibition of recombinant rat FAAH deltaTM mutant expressed in Escherichia coli at 100 nM using 14C-labeled oleamide as substrate preincubated for 3 hrs by TLC method relative to control.
The species named for assay [10] is Rattus norvegicus. As to the kind of experiment: Irreversible inhibition of recombinant rat FAAH deltaTM mutant expressed in Escherichia coli at 100 nM using 14C-labeled oleamide as substrate preincubated for 3 hrs followed by dialysis for 18 hrs.

The source made the active and inactive calls. The rule behind the calls is not given here.

As usually defined, the IC50 is the point on the concentration scale where inhibition reaches its midpoint. A higher IC50 goes with a need for much substance. What is called inhibition is the drop in the measured response relative to a control, in per cent. On to `O=C(N1CCN(Cc2ccc3ccccc3c2)CC1)n1cccn1`, for which the IC50 was 0.09 µM in assay [1], > 100 µM in assay [4], 0.96 µM in assay [6] and 0.01 µM in [7]. In assay [2], the inhibition is > 70%. In addition, the inhibition result in assay [3] was “Active”. For the same compound, the Ki in assay [5] was found to be 0.0098 µM.

For `Cc1cnn(C(=O)N2CCN(C(c3ccc4ccccc4c3)c3ccc4ccccc4c3)CC2)c1`, the IC50 is > 100 µM in assay [1], > 100 µM in assay [4], 0.26 µM in [6] and > 100 µM in assay [7].

On to `O=C(N1CCCCC1)n1cccn1`, for which the concentration for half-maximal inhibition (IC50) in assay [1] was 1 µM; in assay [4], > 100 µM; in assay [6], 6.6 µM; in assay [7], 5 µM. The Ki in assay [5] came out at 0.75 µM.

Turning to `CN(CCN(C)C(c1ccc(OCc2ccccc2)cc1)c1ccc(OCc2ccccc2)cc1)C(=O)n1cccn1`, the IC50 in assay [1], in [4], in assay [6] and in assay [7] was > 1000 µM each time.

Take `N#Cc1cnn(C(=O)N2CCCCC2)c1`: the IC50 was < 0.01 µM in assay [1], > 100 µM in [4], 0.12 µM in [6] and 0.06 µM in assay [7]. Further, the Ki in [5] was 0.08 µM.

Turning to `Cc1cnn(C(=O)N2CCN(Cc3ccc(OCc4ccccc4)cc3)CC2)c1`, the TDI entry in [8] is “Active”. Also, the half-maximal inhibitory concentration (IC50) in assay [1] was 0.65 µM; in [4], > 100 µM; in [6], 0.2 µM; in assay [7], 0.01 µM. Besides, the inhibition in [9] is > 70%. In addition, in [5], the Ki came to 0.1 µM. For the same compound, the inhibition result in assay [10] is “Active”.

Regarding `Cc1cnn(C(=O)N2CCCCC2)c1`, the IC50 in assay [1] is 2.2 µM; in assay [4], > 100 µM; in assay [6], 9.2 µM; in assay [7], 1.1 µM. Moreover, in assay [5], the Ki was > 1 µM.

Take `CN(CCN(C)C(c1ccc(OCc2ccccc2)cc1)c1ccc(OCc2ccccc2)cc1)C(=O)n1cc(C#N)cn1`: the 50% inhibitory concentration (IC50) in [1] is > 1000 µM; in assay [4] it was > 1000 µM; in [6], 32 µM; in assay [7], > 1000 µM.

As to `CN(CCN(C)C(=O)n1cc(C#N)cn1)Cc1cccc(OCc2ccccc2)c1`, the half-maximal inhibitory concentration (IC50) was 0.19 µM in assay [1], > 100 µM in assay [4], 0.59 µM in [6] and 1.1 µM in assay [7]. In addition, in assay [5], the Ki amounted to 0.0013 µM.

With `Cc1cnn(C(=O)N2CCCN(Cc3ccc(OCc4ccccc4)cc3)CC2)c1`, the 50% inhibitory concentration (IC50) is 0.56 µM in [1], > 100 µM in [4], 9.5 µM in assay [6] and 9.5 µM in assay [7]. Further, in [5], the Ki was 0.23 µM.

For the compound `Cc1cnn(C(=O)N(C)CCN(C)Cc2cccc(OCc3ccccc3)c2)c1`, the IC50 was 9 µM in assay [1], > 100 µM in assay [4], 4.1 µM in [6] and 8.3 µM in assay [7]. Moreover, the Ki in assay [5] was found to be 0.035 µM.

`CN(CCN(C)C(=O)n1cccn1)Cc1ccc(OCc2ccccc2)cc1`: the IC50 was 0.51 µM in assay [1], > 100 µM in [4], 0.66 µM in [6] and 0.53 µM in assay [7]. In addition, the Ki in assay [5] is 0.013 µM.

As to `CN(CCN(C)C(=O)n1cccn1)Cc1cccc(OCc2ccccc2)c1`, the IC50 in assay [1] is 3 µM; in [4] it was > 100 µM; in [6] it was 4.6 µM; in assay [7], 5.5 µM. In addition, the Ki in [5] stood at 0.0066 µM.

Regarding `Cc1cnn(C(=O)N2CCN(Cc3ccc4ccccc4c3)CC2)c1`, the half-maximal inhibitory concentration (IC50) in assay [1] is 0.96 µM; in assay [4], > 100 µM; in assay [6], 0.92 µM; in assay [7], 0.01 µM. The inhibition in [9] was > 70%. Also, the Ki in assay [5] stood at 0.13 µM. Further, the inhibition entry in assay [10] is “Active”.

Take `Cc1cnn(C(=O)N2CCN(C(c3ccc(OCc4ccccc4)cc3)c3ccc(OCc4ccccc4)cc3)CC2)c1`: the IC50 is > 100 µM in [1], > 100 µM in assay [4], 2.1 µM in assay [6] and > 100 µM in assay [7]. Moreover, the Ki in [5] was 110 µM.

As to `O=C(N1CCCN(Cc2ccc(OCc3ccccc3)cc2)CC1)n1cccn1`, the IC50 in [1] was 0.45 µM; in assay [4], > 100 µM; in [6] it was 10 µM; in assay [7] it was 0.96 µM. In addition, the Ki in [5] amounted to 0.034 µM.

As for `O=C(N1CCN(C(c2ccc3ccccc3c2)c2ccc3ccccc3c2)CC1)n1cccn1`, the 50% inhibitory concentration (IC50) is > 100 µM in [1], > 100 µM in assay [4], 1.8 µM in [6] and > 100 µM in [7].

As to `CN(CCN(C)C(=O)n1cc(C#N)cn1)Cc1ccc(OCc2ccccc2)cc1`, the IC50 in [1] is 0.12 µM; in assay [4], > 100 µM; in [6] it was 0.26 µM; in assay [7], 0.32 µM. Further, in [5], the Ki came out at 0.003 µM.

In the case of `O=C(N1CCN(C(c2ccc(OCc3ccccc3)cc2)c2ccc(OCc3ccccc3)cc2)CC1)n1cccn1`, the IC50 is > 100 µM in assay [1], > 100 µM in assay [4], 3.9 µM in assay [6] and > 100 µM in [7]. In addition, the Ki in assay [5] came to 73 µM.

In the case of `Cc1cnn(C(=O)N(C)CCN(C)Cc2ccc(OCc3ccccc3)cc2)c1`, the concentration for half-maximal inhibition (IC50) in [1] was 8.7 µM; in assay [4] it was > 100 µM; in assay [6] it was 1.2 µM; in assay [7] it was 1.2 µM. In addition, the Ki in assay [5] was 0.07 µM.

As to `Cc1cnn(C(=O)N(C)CCN(C)C(c2ccc(OCc3ccccc3)cc2)c2ccc(OCc3ccccc3)cc2)c1`, the IC50 in [1], in assay [4], in assay [6] and in [7] was > 1000 µM each time. Moreover, the Ki in [5] is 140 µM.

As to `N#Cc1cnn(C(=O)N2CCCN(Cc3ccc(OCc4ccccc4)cc3)CC2)c1`, the IC50 in [1] is < 0.01 µM; in assay [4] it was > 100 µM; in [6], 10 µM; in [7], 0.085 µM. For the same compound, the Ki in assay [5] worked out at 0.0015 µM.

With `O=C(N1CCN(Cc2ccc(OCc3ccccc3)cc2)CC1)n1cccn1`, in assay [8], the TDI result is “Active”. Besides, the IC50 in assay [1] is 0.06 µM; in assay [4] it was > 100 µM; in assay [6], 0.45 µM; in [7] it was 0.22 µM. In [2], the inhibition was > 70%. The inhibition entry in [3] was “Active”. Besides, the Ki in assay [5] was 0.01 µM.
